In patent US9669003B2, “Use of flavone and flavanone derivatives in preparation of sedative and hypnotic drugs” (priority 2012, dated 2017):
Marks after values point to notes of the source that are not given here.

Columns and labels:
Format in all cases: in vivo
Kunming mice [1] = test: Influence on hypnosis effect with pentobarbital sodium doses at the threshold (50 mg/kg i.p.); conditions: pentobarbital sodium 50 mg/kg i.p. 60 min later, x ± s, n = 10
In short: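 Kunming mice (10/group, half each sex) received compound in 0.5% CMC-Na intragastrically at 25, 50 or 100 mg/kg; 60 min later given 0.3% sodium pentobarbital 50 mg/kg i.p. Sleep latency and duration recorded by loss of righting reflex over 1 min; ANOVA and χ2 for sleep incidence.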

Kunming mice [2] = test: Influence on hypnosis effect with pentobarbital sodium doses below the threshold (25 mg/kg i.p.); conditions: pentobarbital sodium 25 mg/kg i.p. 60 min later, sleep observed in 30 min, n = 10
In short: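 Kunming mice (10 per group, half female) given single oral doses of 25, 50 or 100 mg/kg in 0.5% CMC-Na; 60 min later pentobarbital sodium 25 mg/kg i.p. Sleep (righting reflex lost >1 min) scored within 30 min as percentage asleep, χ2 test.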

Kunming mice [3] = test: Influence on autonomic activity of normal mice (ZIL-2 mice autonomic activity meter, counts within 10 min); conditions: intragastric, x ± s, n = 10; for Times of activities in 1 h after drug administration/10 min: 1 h after administration; for Times of activities in 2 h after drug administration/10 min: 2 h after administration; for Times of activities in 24 h after drug administration/10 min: 24 h after administration
In short: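 Kunming mice (10 per group, half each sex) were dosed at 25, 50 or 100 mg/kg in 0.5% CMC-Na. Spontaneous activity counts over 10 min were recorded at 1 h, 2 h and 24 h post-dose. Groups were compared by ANOVA with Dunnett's test after Levene's check.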

[4] = 25 mg/kg intragastric single dose
[5] = 50 mg/kg intragastric single dose
[6] = 100 mg/kg intragastric single dose
[7] = test drug 25 mg/kg intragastric single dose
[8] = test drug 50 mg/kg intragastric single dose
[9] = test drug 100 mg/kg intragastric single dose

Structure (SMILES) | duration of sleep (Kunming mice [1]; [4]) [min] | time to sleep (Kunming mice [1]; [4]) [min] | duration of sleep (Kunming mice [1]; [5]) [min] | time to sleep (Kunming mice [1]; [5]) [min] | duration of sleep (Kunming mice [1]; [6]) [min] | time to sleep (Kunming mice [1]; [6]) [min] | Number of sleeping animals (Kunming mice [2]; [7]) | rate of sleeping (%) (Kunming mice [2]; [7]) | Number of sleeping animals (Kunming mice [2]; [8]) | rate of sleeping (%) (Kunming mice [2]; [8]) | Number of sleeping animals (Kunming mice [2]; [9]) | rate of sleeping (%) (Kunming mice [2]; [9]) | Times of activities in 1 h after drug administration/10 min (Kunming mice [3]; 25 mg/kg) | Times of activities in 2 h after drug administration/10 min (Kunming mice [3]; 25 mg/kg) | Times of activities in 24 h after drug administration/10 min (Kunming mice [3]; 25 mg/kg) | Times of activities in 1 h after drug administration/10 min (Kunming mice [3]; 50 mg/kg) | Times of activities in 2 h after drug administration/10 min (Kunming mice [3]; 50 mg/kg) | Times of activities in 24 h after drug administration/10 min (Kunming mice [3]; 50 mg/kg) | Times of activities in 1 h after drug administration/10 min (Kunming mice [3]; 100 mg/kg) | Times of activities in 2 h after drug administration/10 min (Kunming mice [3]; 100 mg/kg) | further results
CC=Cc1cc(C(=O)O)c2c(=O)cc(-c3ccc(C#N)c(C(=O)O)c3)oc2c1 [Example 40] | 21.71 ± 26.77 | 5.32 ± 2.47 | 27.68 ± 27.86 | 5.13 ± 2.64 | 61.35 ± 45.27 | 4.92 ± 1.26 | 4 | 40* % | 6 | 60** % | 7 | 70** % | 291.4 ± 51.5 /10 min | 276.0 ± 48.7 /10 min | 311.2 ± 79.9 /10 min | 245.7 ± 44.5 /10 min | 223.6 ± 43.8 /10 min | 288.9 ± 68.9 /10 min | 145.7 ± 39.8 /10 min | 169.8 ± 40.5 /10 min | Times of activities in 24 h after drug administration/10 min (Kunming mice [3]; 100 mg/kg): 301.5 ± 91.8 /10 min
COc1cc(OC)cc(C2CC(=O)c3c(OC)cc(OC)cc3O2)c1 (stereo not drawn) [Example 49] | 37.90 ± 13.18 | 4.59 ± 1.55 | 40.75 ± 23.05 | 3.69 ± 1.32 | 57.65 ± 17.87 | 3.38 ± 1.29 | 4 | 40* % | 6 | 60** % | 7 | 70** % | 305.2 ± 78.7 /10 min | 299.8 ± 94.1 /10 min | 281.4 ± 94.3 /10 min | 267.9 ± 21.5 /10 min | 246.6 ± 13.9 /10 min | 274.2 ± 34.8 /10 min | 179.9 ± 35.9 /10 min | 170.5 ± 34.1 /10 min | Times of activities in 24 h after drug administration/10 min (Kunming mice [3]; 100 mg/kg): 286.1 ± 12.7 /10 min
COc1cc(OC)c2c(c1)OC(c1cc(OC)c(OC)c(OC)c1OC)CC2=O (stereo not drawn) [Example 66, 5,7,2′,3′,4′,5′-hexa methoxyl-flavanone] | 23.81 ± 25.29 | 5.37 ± 2.12 | 27.79 ± 26.78 | 5.12 ± 2.65 | 61.44 ± 47.33 | 3.14 ± 1.10 | 3 | 30% | 5 | 50** % | 8 | 80*** % | 307.7 ± 54.6 /10 min | 281.3 ± 31.2 /10 min | 314.7 ± 66.7 /10 min | 275.8 ± 44.3 /10 min | 270.7 ± 46.3 /10 min | 314.1 ± 81.4 /10 min | 258.4 ± 40.3 /10 min | 243.9 ± 41.2 /10 min | Times of activities in 24 h after drug administration/10 min (Kunming mice [3]; 100 mg/kg): 334.7 ± 62.9 /10 min
CCc1cccc2c1C(=O)CC(c1cc(F)cc(C(=O)O)c1)O2 (stereo not drawn) [Example 53] | 39.56 ± 20.45 | 4.82 ± 1.61 | 47.28 ± 16.84 | 4.31 ± 1.84 | 52.86 ± 19.25 | 3.61 ± 1.48 | 4 | 40* % | 6 | 60** % | 7 | 70** % | 303.8 ± 67.4 /10 min | 283.8 ± 73.8 /10 min | 314.9 ± 68.9 /10 min | 249.3 ± 61.0 /10 min | 236.7 ± 60.8 /10 min | 297.7 ± 87.6 /10 min | 201.8 ± 36.6 /10 min | 194.8 ± 42.5 /10 min | Times of activities in 24 h after drug administration/10 min (Kunming mice [3]; 100 mg/kg): 330.9 ± 73.6 /10 min
COc1cc(OC)c2c(c1)OC(c1cc(OC)c(OC)c(OC)c1)CC2=O (stereo not drawn) [Example 46, 5,7,3′,4′,5′-penta methoxyl-flavanone] | 27.80 ± 23.24 | 5.52 ± 2.31 | 47.16 ± 23.51 | 4.22 ± 1.23 | 55.58 ± 20.72 | 3.96 ± 2.45 | 3 | 30% | 6 | 60** % | 7 | 70** % | 300.8 ± 49.2 /10 min | 299.2 ± 38.9 /10 min | 275.4 ± 81.3 /10 min | 264.4 ± 41.3 /10 min | 254.1 ± 53.2 /10 min | 284.7 ± 78.7 /10 min | 176.8 ± 43.2 /10 min | 163.4 ± 36.5 /10 min | Times of activities in 24 h after drug administration/10 min (Kunming mice [3]; 100 mg/kg): 294.4 ± 67.5 /10 min
CCCc1ccc(C2CC(=O)c3c(O)cc([N+](=O)[O-])cc3O2)cc1OC (stereo not drawn) [Example 61] | 38.44 ± 15.12 | 4.42 ± 1.43 | 58.53 ± 27.42 | 3.92 ± 1.31 | 58.47 ± 24.40 | 3.79 ± 1.44 | 5 | 50** % | 6 | 60** % | 8 | 80*** % | 317.3 ± 50.1 /10 min | 289.4 ± 40.2 /10 min | 301.9 ± 77.5 /10 min | 295.1 ± 41.9 /10 min | 250.7 ± 42.8 /10 min | 300.2 ± 91.3 /10 min | 287.1 ± 45.9 /10 min | 221.5 ± 45.8 /10 min | Times of activities in 24 h after drug administration/10 min (Kunming mice [3]; 100 mg/kg): 317.9 ± 80.3 /10 min
